Results: patent US6872195B2, “Chlorhexidine-containing medical devices” (The Trustees of Columbia University in the City of New York, priority 1996, dated 2005)

Legend:
[1] = tested on: Staphylococcus aureus; assay: One-minute kill in bacterial culture (colony counts); assay type: cell-based; conditions: for CFU/ml (1 minute kill): TSB + 20% BCS, 10^7 CFU inoculum; for decrease in CFU: 500 micrograms per milliliter, 1 minute
Protocol: Various concentrations of chlorhexidine diacetate (“CHA”) and/or triclosan (“TC”) were dispensed in 1.0 ml trypticase soy broth (“TSB”) containing 20 percent bovine calf serum (“BCS”) and inoculated with 10^7 colony-forming units (“CFU”) of Staphylococcus aureus. After one minute, the cultures were diluted with drug-inactivating medium (1:100 dilution in LTSB drug inactivating medium, which is 5% Tween 80, 2% lecithin, 0.6% sodium oleate, 0.5% sodium thiosulfate, 0.1% protease peptone and 0.1% tryptone) and 0.2 ml of the diluted culture was subcultured on a trypticase soy agar plate for the determination of colony counts.

[2] = Solubility observation; assay type: physicochemical; conditions: water or alcohol
From the text: When relatively soluble chlorhexidine salts such as chlorhexidine acetate (CHA) were used to impregnate catheters, the release was undesirably rapid. We investigated the use of CHX as a substitute for CHA.

Row | SMILES | CFU/ml (1 minute kill) ([1]; 500 μg/ml) | CFU/ml (1 minute kill) ([1]; 1000 μg/ml) | CFU/ml (1 minute kill) ([1]; 2000 μg/ml) | decrease in CFU [1] | solubility [2] | CFU/ml (1 minute kill) ([1]; 250 μg/ml)
1 | CC(=O)O.CC(=O)O.NC(=N\CCCCCC/N=C(N)/N=C(\N)Nc1ccc(Cl)cc1)/N=C(\N)Nc1ccc(Cl)cc1 [CHA, chlorhexidine diacetate] | 6.0 × 10^5 CFU/ml | 5.0 × 10^4 CFU/ml | 2.1 × 10^3 CFU/ml | approximately 17 fold |  | 
2 | N=C(NCCCCCCNC(=N)NC(=N)Nc1ccc(Cl)cc1)NC(=N)Nc1ccc(Cl)cc1 [CHX, chlorhexidine free base] |  |  |  |  | not soluble | 
3 | Oc1cc(Cl)ccc1Oc1ccc(Cl)cc1Cl [TC, 2,4,4′-trichloro-2′-hydroxydiphenyl ether] | 4.2 × 10^3 CFU/ml |  |  | approximately 2400 fold |  | 2.0 × 10^5 CFU/ml
